Source: patent US10501453B2, “Benzothiazole or benzoxazole compounds as SUMO activators” (Icahn School of Medicine at Mount Sinai, priority 2012, dated 2019)
Values after ≈ are worked out from the molar mass of the structure shown. Read-outs that look alike come from different tables or passages of the source. Blank lines part the entries; values can stand above or below the compound they belong to.

What was measured:
[1] = test system: YFP-SUMO1; assay: YFP-SUMO1 accumulation (cell image) in HEK-293 cells expressing YFP-SUMO1 and pcDNA3.0-SERCA2a; format: cell-based; settings: increase vs. DMSO; for fold induction at 10 µM: Homo sapiens, HEK293, 24 hours
Text: (§1) The following antibodies were used for immunoblotting and immunoprecipitation (IP): polyclonal anti-SERCA2a (21th century Biochem Inc.), monoclonal anti-GAPDH (Sigma-Aldrich, catalog no. G8795), monoclonal anti-SUMO 1 (Cell Signaling Technology Inc., catalog no. 4930), anti-mouse horseradish peroxidase (HRP) (Pierce Biotechnology Inc., catalog no. 32430), and anti-rabbit HRP (Pierce Biotechnology Inc., catalog no. 32460). YFP-tagged SUMO1, pcDNA3.0-SERCA2a, and HA-tagged Ubc9 plasmids were used for the transfection. The plasmid DNA was amplified in the Escherichia coli strain DH5a and extracted by using a commercial purification kit (Qiagen, catalog no. 12263). Purified plasmid was resuspended in sterile TE buffer (10 mM Tris-HCl and 1 mM EDTA, pH 7.6). Only the preparation highest purity (A260/A280>1.8) was used for transfection. 1 μg of each plasmid was used for transfection. HEK-293 cells (American Type Culture Collection, catalog no. CRL-1873) were grown at 37° C. and under a 5% CO2 humidified atmosphere in Dulbecco's modified Eagle's medium (DMEM, Cellgro, catalog no. 10-0 13-CM) containing 10% fetal bovine serum (SAFC Bioscience, catalog no. 12107) and 100 i.u of penicillin/ml and 100 μg of streptomycin/ml. HEK-293 cells were seeded at a density of 3-5×10^5 cells per 60 mm culture dish in DMEM. The cells were transiently transfected using Lipofectamine 2000 (Invitrogen, catalog no. 11668) with indicated expression plasmids. After 24 hours, the cells were treated with either small molecules or dimethyl sulfoxide (DMSO, Sigma-Aldrich, catalog no. D2650).
(§2) Each compound was added at 10 μM. DMSO was used as a control. After 24 hours at 37° C., SERCA2a SUMOylation and functional analysis were determined.
Cellular permeability and potential activity of the compounds were examined by tracking of the YFP-SUMO1. HEK-293 cells expressing YFP-SUMOI and pcDNA3.0-SERCA2a were incubated with either 10 μM DMSO or 10 μM small molecules for 24 hours at 37° C. Fluorescent signals were monitored by fluorescence microscopy. HA-tagged Ubc9 expressing cells were served as a positive control.
The ability of the Example compound to SUMOylate SERCA2a was examined using an in vitro system in HEK 293 cells where both SERCA2a and SUMO 1 are expressed. The cellular permeability and potential activity of the Example compounds was examined by tracking of the YFP-SUM01. HEK-293 cells expressing YFP-SUM01 and pcDNA3.0-SERCA2a were treated with either 10 μM DMSO or 10 μM indicated Example 1 for 24 hrs. Fluorescent signals were monitored by fluorescence microscopy. HA-Ubc9 expressing cells were served as a positive control. The SERCA2a SUMOylation profiling was then analyzed by using the same cells (FIG. 1B, WCL, whole cell lysates; S-SERCA2a, SUMOylated SERCA2a).

[2] = test system: SERCA2a; assay: SERCA2a SUMOylation assay in HEK-293 cells (immunoprecipitation/immunoblotting); format: cell-based; settings: compared with DMSO control; 10 μM
Text: as §1, §2
Equal amounts of protein from either small molecule treated or DMSO treated cells or immunoprecipitates were resolved by 7.5% SDS-PAGE and transferred to nitrocellulose membranes (Bio-Rad, catalog no. 162-0112). The membranes were blocked for 1 hour at room temperature with 5% non-fat milk (Cell Signaling Technology Inc., catalog no. 9999) in TBST (10 mM Tris-HCl, 150 mM NaCl, and 0.05% tween-20, pH 8.0). The blots were incubated with specific primary antibodies at 4° C. for overnight. The blots were then washed five times for 10 minutes each with TBST and incubated for 1 hour with HRP-conjugated secondary antibodies in TBST with 5% non-fat milk. After five times TBST washes, the protein bands were visualized with enhanced chemiluminescence (Pierce Biotechnology Inc., catalog no. 32132) and exposed to x-ray film (Denville Scientific Inc., catalog no. E3012). GAPDH expression provided an internal control.
Post-transfection (48 hours), the HEK-293 cells were rinsed twice with phosphate-buffered saline (PBS, Cellgro, catalog no. 21-040-CM) and lysed in 1% Nonidet P-40 lysis buffer (Boston Bioproducts, catalog no. BP-119) with 10 mM N-ethylmaleimide (NEM, Sigma-Aldrich, catalog no. N3876) and […] inhibitor cocktail (Complete Mini Tablet, Roche Applied Science, catalog no. 11836153001). 2 mg of protein were mixed with the anti-SERCA2a antibodies for overnight at 4° C. in lysis buffer. Pre-washed protein A-Separose beads (Pierce Biotechnology Inc., catalog no. 20333) was added to each sample and incubated 1 hour at 4° C. with gentle rocking. Immunocomplexes were washed with lysis buffer three times and precipitated by centrifugation at 12000×g for 10 seconds. The immunocomplexes were resuspended in SDS sample buffer and subjected to immunoblotting. Controls for the immunoprecipitations were performed using an anti-rabbit IgG equal to that of the primary precipitating antibody. Ten percent of whole cell lysates used in the immunoprecipitation was loaded for subsequent immunoblotting.
The ability of the Example compound to SUMOylate SERCA2a was examined using an in vitro system in HEK 293 cells where both SERCA2a and SUMO 1 are expressed. […]

[3] = test system: adult rat ventricular myocytes (ARVMs); assay: Cell shortening/re-lengthening and calcium transient of ARVMs (IonOptix); format: cell-based; settings: compared to DMSO control; 10 μM
Protocol: Calcium-tolerant adult rat ventricular myocytes (ARVMs) were obtained from hearts of male Sprague-Dawley rats (250 to 300 g). The heart was excised and perfused with a standard enzymatic technique. ARVMs were plated on multi-chambered plates or culture dishes, pre-coated with laminin 2 μg/cm^2, at a density of 10^5 cells/cm^2 in DMEM without L-glutamine supplemented with 10 mmol/l HEPES, 3.7 mg/ml NaHCO3, 1 mg/ml glucose, 0.11 mg/ml sodium pyruvate, 2 mg/ml bovine serum albumin, 2 mmol/1 L-camitine, 5 mmol/1 creatine, 5 mmol/1 taurine, 1% penicillin-streptomycin, and 1% gentamycin. Following isolation, cells were allowed to settle for 1 hour. Cultures were incubated at 37° C., in an atmosphere of 5% CO2-95% air. Fresh medium was added gently as medium was being drawn off until the cultures had been thoroughly washed. Only quiescent, rod-shape cardiac myocytes were selected for IonOptix experiments.
as §2
Mechanical properties of ARVMs were assessed using an IonOptix MyoCam® system (IonOptix, Milton, Mass.). In brief, cells were placed in a Warner chamber mounted on the stage of an inverted microscope (Olympus, IX-70) and superfused (1 ml/min at 30° C.) with a buffer containing 131 mM NaCl, 4 mM KCl, 1 mM CaCh, 1 mM MgCh, 10 mM glucose, and 10 mM HEPES, pH 7.4. ARVMs were field stimulated with suprathreshold voltage and at a frequency of 0.5 Hz. […] SoftEdge software (IonOptix) was used to capture changes in cell length during shortening and re-lengthening.
ARVMs were placed in a chamber on an Olympus IX-70 inverted microscope and imaged through a Fluor 40× oil objective. ARVMs were exposed to light emitted by a 75 W lamp and passed through either a 360 or a 380 nm filter (bandwidths were ±15 nm), while being stimulated to contract at 0.5 Hz. Fluorescence emissions were detected between 480 and 520 nm by a photomultiplier tube after first illuminating cells at 360 nm for 0.5 s then at 380 nm for the duration of the recording protocol (333 Hz sampling rate). The 360 nm excitation scan was repeated at the end of the protocol and qualitative changes in intracellular Ca^2+ concentration ((Ca^2+]i) were inferred from the ratio of the fluorescence intensity at two wavelengths.
The effects of the Example compound was examined on isolated rat cardiomyocytes shortening and relaxation parameters. […] Effects of Example 1 on mechanical properties of the ARVMs were assessed using a video-based edge detection system (IonOptix). The time constant of the increase of force during the stretch decreased (tau), percentage of peak shortening (PS), maximal rate of relaxation and contraction were analyzed at 24 hrs postincubation of the compounds in culture media (N=10 ARVMs). The mechanical data were analyzed with student's t-test (FIG. 2A, P<0.05 compared to the DMSO treated cells). SERCA2a SUMOylation profiling was analyzed in a same set of ARVMs (FIG. 2B, WCL, whole cell lysates; S-SERCA2a, SUMOylated SERCA2a).

[4] = Solubility (Table 2); settings: DMSO, organic solvent or mixture
[5] = test system: HEK-293 cells; assay: Toxicity (Table 2; cytotoxicity in the compound screen)
[6] = test system: HEK-293 cells

solubility [4]: 10 mM (≈ 3420 µg/mL)
Compound: COc1ccc(-c2nnc(Nc3nc4c(F)cccc4s3)o2)cc1 [Example 4, N-(4-fluorobenzo[d]thiazol-2-yl)-5-(4-methoxyphenyl)-1,3,4-oxadiazol-2-amine]
fold induction at 10 µM [1]: 2.34
SERCA2a SUMOylation [2]: Increased 1.4x compared with DMSO control
Cardiac Contraction: Peak shortening [3]: Peak shortening 4.3x compared to DMSO control
Toxicity [5]: Non-toxic

solubility [4]: 10 mM (≈ 3300 µg/mL)
Compound: Fc1ccc(-c2nnc(Nc3nc4c(F)cccc4s3)o2)cc1 [Example 2, N-(4-fluorobenzo[d]thiazol-2-yl)-5-(4-fluorophenyl)-1,3,4-oxadiazol-2-amine]
fold induction at 10 µM [1]: 2.93
SERCA2a SUMOylation [2]: Increased 1.34x compared with DMSO control
Cardiac Contraction: Peak shortening [3]: Peak shortening 2.2x compared to DMSO control
Toxicity [5]: Non-toxic

solubility [4]: 10 mM (≈ 3420 µg/mL)
Compound: COc1cccc(-c2nnc(Nc3nc4c(F)cccc4s3)o2)c1 [Example 3, N-(4-fluorobenzo[d]thiazol-2-yl)-5-(3-methoxyphenyl)-1,3,4-oxadiazol-2-amine]
fold induction at 10 µM [1]: 2.49
SERCA2a SUMOylation [2]: Increased 1.43x compared with DMSO control
Cardiac Contraction: Peak shortening [3]: Peak shortening 2.5x compared to DMSO control
Toxicity [5]: Non-toxic

Compound: N-(6-fluorobenzo[d]thiazol-2-yl)-5-(4-methoxyphenyl)-1,3,4-oxadiazol-2-amine [Example 14]
YFP accumulation ([1]; 10 μM, 24 hours): Active
SERCA2a SUMOylation [2]: Not statistically significant
Toxicity [6]: > 50%
